Patent US8772504B2, “Substituted benzoxazole, benzimidazole, oxazolopyridine and imidazopyridine derivatives as gamma secretase modulators” (Janssen Pharmaceuticals, Inc., priority 2009, dated 2014)

How the values were obtained:
[1] = test system: Notch-processing activity of the γ-secretase-complex; experiment: Notch cell-free assay (NICD production from recombinant Notch substrate N99); format: biochemical, mouse; settings: 1 μM test compound, 0.3-0.5 μM Notch substrate, 37° C. for 6 to 22 h, western blotting
Protocol: The Notch transmembrane domain is cleaved by gamma secretase to release
Notch Intracellular C-terminal Domain (NICD).
To monitor the effect of compounds on NICD production, a recombinant Notch substrate (N99) was prepared. The Notch substrate, comprised of mouse Notch fragment (V1711-E1809), an N-terminal methionine and a C-terminal FLAG sequence ([…]), was expressed in E. coli and purified on a column containing an anti-FLAG M2 affinity matrix.
A typical Notch cell-free assay consisted of 0.3-0.5 μM Notch substrate, an enriched preparation of γ secretase and 1 μM of a test compound (compounds 8, 15, 92, 108, 114 and 130 of the present invention). Controls included a γ secretase inhibitor (GSI), such as (2S)—N-[2-(3,5-difluorophenyeacetyl]-L-alanyl-2-phenyl-glycine 1,1-dimethylethyl ester (DAPT) or (2S)-2-hydroxy-3-methyl-N-[(1S)-1-methyl-2-oxo-2-[[(1S)-2,3,4,5-tetrahydro-3-methyl-2-oxo-1H-3-benzazepin-1-yl]amino]ethyl]-butanamide (Semagacestat), and DMSO, the final concentration of DMSO being 1%. Recombinant Notch substrate was pre-treated with 17 μM DTT (1,4-dithiothreitol) and 0.02% SDS (Sodium Dodecyl Sulfate) and heated at 65° C. for 10 min. The mixture of substrate, gamma secretase and compound/DMSO was incubated at 37° C. for 6 to 22 hours (h). 6 h incubation was sufficient to produce the maximal amount of NICD and the cleaved product remained stable for an additional 16 h. Reaction products were processed for SDS PAGE (Sodium Dodecyl Sulfate-Poly Acrylamide Gel Electrophoresis) and western blotting. Blots were probed with an anti-Flag M2 antibody, followed by LI-COR infrared secondary antibody, and analyzed with the Odyssey Infrared Imaging System (LI-COR® Biosciences).

[2] = test system: T1, Notch-processing activity of the γ-secretase-complex; experiment: Notch cell-based assay (N2-CHO/DL-CHO co-culture, Dual-Glo luciferase); parameters: species or system mouse; settings: N2-CHO/DL-CHO co-culture 16 h; five-point curve 3 μM-0.3 nM
T1 construct: average IC50 Notch cell-based assay (luciferase readout); other: N2-CHO/DL-CHO co-culture 16 h; five-point curve 3 μM-
Source text: The Notch cell-based assay was based on the interaction of Notch and its ligand in a co-culture system and utilized the Dual-Glo Luciferase Assay System (Promega) to monitor NICD production. 2 stable cell lines, N2-CHO and DL-CHO, were established to express full-length mouse Notch2 and Delta respectively. Cells that expressed mouse Notch were also transfected with 2 plasmids, pTP1-Luc and pCMV-RLuc, to express firefly and Renilla luciferase. Expression of firefly luciferase was under the control of TP1 promoter that responded to NICD activation.
N2-CHO cells were seeded at 1×10^5/well in 24-well plates the day before transfection. On the second day, cells were double transfected with 3 μg/well pTP1-Luc (expressing firefly luciferase) and 0.3 ng/well pCMV-RLuc (expressing Renilla luciferase). After 6 h incubation, transfected N2-CHO cells were washed and DL-CHO cells (2×10^5 cells/well) were added.
Compounds were pre-mixed with DL-CHO cell suspension in a five-point curve. Typically, compound treatment was performed in duplicate with a serial 1:10 dilution (3 μM-0.3 nM) in DMSO. The final concentration of DMSO in a given culture was 1%. Controls included non-transfected cells and transfected cells treated with a GSI or DMSO only. Luciferase assays were performed after 16 h co-culture and compound treatment.
The luciferase assay was carried out according to manufacture's instructions. Briefly, cells were washed with PBS (Phosphate Buffered Saline), lysed with Passive Lysis Buffer (Promega), and incubated at room temperature for 20 min. Lysates were mixed with Dual-Glo Luciferase Reagent and the firefly luciferase activity was measured by reading the luminescence signal in the EnVision 2101 Multilabel reader. Dual-Glo Stop & Glo Reagent was then added to each well and the Renilla luciferase signal was measured.

## COc1cc(Nc2cccc3c2nc(-c2ccc(F)cc2)n3C)ccc1-n1cnc(C)c1 [Compound 1]
other
  melting point: 130.9 °C

## COc1cc(Nc2cccc3c2nc(-c2ccc(F)cc2)n3C)ccc1-n1cnc(C)n1 [Compound 4]
other
  melting point: 185.2 °C

## COc1cc(Nc2nccc3c2nc(-c2ccc(F)cc2)n3C)ccc1-n1cnc(C)c1 [Compound 8]
[1]
  effect on the Notch-processing activity of the γ-secretase-complex (production of NICD): did not show an effect

## COc1nc(Nc2cccc3c2nc(-c2ccc(F)cc2)n3C)ccc1-n1cnc(C)c1 [Compound 15]
[1]
  effect on the Notch-processing activity of the γ-secretase-complex (production of NICD): did not show an effect
[2]
  inhibition in Notch cell-based assay (luciferase readout): non-inhibitory

## COc1cc(Nc2nccc3c2nc(-c2ccc(F)cc2)n3C)ccc1-n1cnc(C)n1 [Compound 92]
[1]
  effect on the Notch-processing activity of the γ-secretase-complex (production of NICD): did not show an effect
[2]
  inhibition in Notch cell-based assay (luciferase readout): non-inhibitory

## COc1cc(-c2nc3c(Nc4ccc(-n5cnc(C)n5)c(OC)c4)nccc3n2C)ccc1Cl [Compound 114]
[1]
  effect on the Notch-processing activity of the γ-secretase-complex (production of NICD): did not show an effect
[2]
  inhibition in Notch cell-based assay (luciferase readout): non-inhibitory
other
  melting point: 186.8 °C

## COc1cc(Nc2nccc3c2nc(-c2ccccc2C(F)(F)F)n3C)ccc1-n1cnc(C)n1 [Compound 130]
[1]
  effect on the Notch-processing activity of the γ-secretase-complex (production of NICD): did not show an effect
[2]
  inhibition in Notch cell-based assay (luciferase readout): non-inhibitory
